“Also recorded” adds a separate entry of the source.

The subject of assay [1] is AVP receptor V1a. In words: Western immunoblotting, kidney V1a vasopressin receptor. The assay is classed as in vivo, rat. Conditions: aged Fisher 344 rats; 8-AG 5 mg kg/day via drinking water, 1 month. On the procedure:
Western immunoblotting and transmission electron microscopy: Following these testing paradigms, rats were deeply anesthetized, bladders were removed, and one half of each bladder (using the smooth muscle layer) was homogenized using Lysing Matrix D in a FASTPREP-24™ instrument (MP BIOMEDICALS™, Solon, Ohio) in HBSS (5 mM KCl, 0.3 mM KH2PO4, 138 mM NaCl, 4 mM NaHO3, 0.3 mM Na2HCO3, 0.3 mM Na2HPO4, 5.6 mM glucose and 10 mM Hepes, pH 7.4) containing complete protease inhibitor cocktail (1 tablet/10 ml, ROCHE™, Indianapolis, Ind.) and phosphatase inhibitor cocktail (SIGMA®, 1:100). Whole rat kidney was also homogenized using the same procedure. After centrifugation (13000 rpm; 15 min at 4° C.), the membrane protein fraction was prepared by suspending the membrane pellets in lysis buffer containing 0.3 M NaCl, 50 mM Tris-HCl (pH 7.6), 0.5% Triton X-100, and the same concentration of protease inhibitors as above. […] The protein concentrations of the combined supernatants were determined using the PIERCE™ BCA protein assay (THERMO SCIENTIFIC™, Rockford, Ill.). […] As a loading control, total protein per sample was determined using BIO-RAD™ Stain Free SDS-PAGE gel technology. UV-activated protein fluorescence was imaged on a CHEMIDOC™ MP (BIO-RAD™). […] The volume (intensity) of each protein species was determined and normalized to total protein using Image Lab software (BIO-RAD™).
On the technique in general: In western blotting, separated proteins are transferred to a membrane and probed.

Assay [2] has as its system aged rats. In words: Voiding analysis in metabolic cages, aged rats. Type of assay: in vivo, rat. The protocol:
Experimental design: Young (3 months of age) and aged (25 to 30 months of age) Fisher 344 rats were used in these experiments. Some of the aged Fisher 344 rats were treated with 8-AG (5 mg kg/day via drinking water) for 1 month.
Voiding analysis: Rats were placed in metabolic cages for 24 hr (once per week for the duration of the study). Voided urine was collected in cups attached to force displacement transducers (GRASS TECHNOLOGIES®, Warwick, R.I.) connected to a computer running WINDAQ™ data acquisition software (DATAQ™ Instruments Inc., Akron, Ohio). Data were averaged for 24 h, and voiding frequency, total voided volume, and volume per void were analyzed. Voiding frequency was calculated as the number of voiding events per hour during 24 h, and volume per void, which defines bladder capacity, was calculated as an average of the voids occurring during these periods.
Animals: Male and female Fisher 344 rats were employed (Charles River; Wilmington, Mass. and the NIA rodent colony). Some rats were young (3 months of age), some were aged (25-30 months of age), and others were aged and treated with oral 8-AG (5 mg/kg/day; 6 weeks). Under isoflurane anesthesia and using an aseptic technique, an incision was made into the lower abdomen and in the scapular area. Sterile PE50 tubing was threaded subcutaneously from the lower abdomen to the scapular area and connected to a one-channel vascular access button (Intech Laboratories, Plymouth Meeting, Pa.). In the abdomen, the tubing was inserted into the bladder and secured with a small purse-string suture. The incisions were closed, and the animals were allowed to recover for 7-10 days before further experimentation. Animals were divided into three groups. A control group of aged rats received daily infusions with 10 μM DEA-NONOate (SIGMA-ALDRICH®, St. Louis, Mo.) in sterile 0.9% saline. A second group received 100 μM 8-AG plus 10 μM DEA-NONOate in 0.9% saline, and a third group received 5 μM forodesine (SIGMA-ALDRICH®) plus 10 μM DEA-NONOate in 0.9% saline. Bladders were instilled via a catheter tether kit (Instech Laboratories) connected to a syringe pump for continuous infusion (rate 200 μl/min; 30 minutes/daily) for 3-6 weeks. The Institutional Animal Care and Use Committee approved all procedures. The investigation conforms to the Guide for the Care and Use of Laboratory Animals published by the US National Institutes of Health (NIH Publication No. 85-23, revised 1996).
Protocol 1: Young, aged, and 8-AG-treated aged rats were placed in metabolism cages for 24 hr once per week. The light cycle was from 7:00 AM to 7:00 PM, and food and water were provided ad libitum. Voided urine was collected in cups attached to force displacement transducers (GRASS TECHNOLOGIES®, Warwick, R.I.) that were connected to a computer running Windaq data acquisition software (DATAQ® Instruments I2nc., Akron, Ohio). Data were averaged for 24 h and analyzed for 12-h periods during the day (7:00 AM-7:00 PM) and night (7:00 PM-7:00 AM). Voiding frequency, total voided volume, and volume per void were analyzed. Voiding frequency was calculated as the number of voiding events per hour during 24 h and during the 12-h day and 12-h night periods. Volume per void, which defines bladder capacity, was calculated as an average of the voids occurring during these periods.
Voiding Analysis: Young, aged, and 8-AG-treated aged rats were placed in metabolic cages (24 hr; once per week) for the duration of the study. The light cycle was from 7:00 AM to 7:00 PM, and food and water were provided ad libitum. Voided urine was collected in cups attached to force displacement transducers (Grass Technologies, Warwick, R.I.) connected to a computer (Windaq data acquisition software DATAQ Instruments Inc., Akron, Ohio). Data were averaged for 24 h and analyzed for 12-h periods during the day (7:00 AM-7:00 PM) and night (7:00 PM-7:00 AM). Voiding frequency, total voided volume, and volume per void were analyzed. […]

Setting [3] is: aged Fischer 344 rats, oral 8-AG 5 mg/kg/day, 6 weeks.
Where [4] appears, read: aged Fisher 344 rats, 8-AG 5 mg kg/day via drinking water, 1 month.

`Nc1nc2[nH]c(N)nc2c(=O)[nH]1` [8-AG, 8-Aminoguanine]: in assay [1], the “V1a vasopressin receptor in kidney” value was “restored to a younger state; also recorded: restored to levels similar to the younger state”. Besides, in assay [2] (setting [3]), the voided volume result is reported as “attenuates” and the voiding frequency entry is “attenuates”. Also, in assay [2] (setting [4]), the “bladder abnormalities (voided volume, voiding efficiency, voiding frequency)” value is “reversed”; the voided volume result is “attenuates”; the voiding frequency result is “attenuates”. The voiding frequency result in assay [2] (aged rats, intravesical 100 μM 8-AG plus 10 μM DEA-NONOate, daily infusion 3-6 weeks, vs control aged rats) is “decreased; also recorded: attenuates”.

These data come from patent US20220054494A1, “METHODS FOR TREATING BLADDER AND URETHRA DYSFUNCTION AND DISEASE” (University of Pittsburgh - Of the Commonwealth System of …, priority 2019, published 2022).
